{"source": "patent US11624056B2", "about": "“Method for producing cartilage cells induced to be differentiated from stem cells” (YiPCELL Inc., priority 2017, dated 2023)", "format_in_all_cases": "cell-based, human", "key": {"[1]": {"test_system": "heavy OG cells", "assay": "Proliferation of heavy OG cells cultured in IGF2 inhibitor-treated medium", "description": "First, among the OG cells obtained in the step iii) of [Example 12], the heavy cells were cultured for 3 days while treating the medium with chromeceptin at a concentration of 2 nM to 2 μM, in the course of inducing differentiation into a chondrogenic pellet according to the step iv). Then, morphology of the cells was observed over the treatment time, and the number of the proliferated cells was counted."}, "[2]": {"test_system": "heavy OG cells", "assay": "Chondrogenic differentiation markers of heavy OG cells cultured in IGF2 inhibitor-treated medium", "from_the_text": "Accordingly, heavy OG cells were induced to differentiate into a chondrogenic pellet while performing treatment with chromeceptin under the conditions of Example <16-1>, during which the OG cells were obtained, and mRNA was extracted therefrom and used to synthesize cDNA. Using the synthesized cDNA as a template, expression levels of SOX9, COL2A1, COL10A1, and IGF2 were quantitatively analyzed."}, "[3]": {"test_system": "heavy OG cells", "assay": "Chondrocyte markers in chondrogenic pellet differentiated in IGF2 inhibitor-treated medium", "details": "2 mM chromeceptin, treatment after aggregation compared with before aggregation", "description": "First, among the OG cells obtained in the step iii) of [Example 12], the heavy cells were cultured for 3 days while treating the medium with chromeceptin at a concentration of 2 mM, in the course of inducing differentiation into a chondrogenic pellet according to the step iv). Experimental groups were divided into two groups, that is, the experimental group (before aggregation) in which differentiation into chondrocytes had been induced by performing treatment with chromeceptin from the beginning of formation of a chondrogenic pellet, and the experimental group (after aggregation) in which differentiation into chondrocytes had been induced by performing treatment with chromeceptin from 7 days after induction of formation of a chondrogenic pellet. The differentiated chondrogenic pellets were respectively obtained therefrom. Then, mRNA was extracted from each of the obtained chondrogenic pellets, and the expression levels of COL2A1, SOX9, COL1A1 and COL10A1 were checked."}}, "data": [{"smiles": "CN(C)c1ccc2c(c1)OC(N)=C(C#N)C2c1cccc(C(F)(F)F)c1", "note": "(stereo not drawn) [chromeceptin]", "values": [{"measurement": "decrease of the number of OG cells", "setting": "[1]; 2 μM chromeceptin, after 72 hours, compared with untreated control", "value": "≥ 3", "unit": "times"}, {"measurement": "degree of proliferation of the cells", "setting": "[1]; chromeceptin 2 nM to 2 μM, 3 days", "value": "decreases with increased treatment concentration"}, {"measurement": "expression level of SOX9", "setting": "[2]; 2 μM chromeceptin, compared with untreated control (Normal Ctrl)", "value": "remarkably increases"}, {"measurement": "expression level of IGF2 in the OG cells", "setting": "[2]; chromeceptin 2 nM to 2 μM", "value": "decreases with increased treatment concentration"}, {"measurement": "expression level of SOX9", "setting": "[2]; chromeceptin 2 nM to 2 μM", "value": "significantly increases with increased treatment concentration"}, {"measurement": "expression level of SOX9 in chondrogenic pellet", "setting": "[3]", "value": "significantly increased"}]}]}
